PMC10604720, “Unraveling the Mechanism of Epichaperome Modulation by Zelavespib: Biochemical Insights on Target Occupancy and Extended Residence Time at the Site of Action” (Biomedicines, 2023)

Assays:
[1] = design: method as in PMID 31668946; conditions: whole-body PET imaging, mice; cited from earlier work
[2] = tested on: epichaperome; experiment: Target occupancy by zelavespib using tracer [131I]-PU-AD and gamma counting in MDA-MB-468 tumors; assay type: in vivo, mouse; conditions: for target occupancy: MDA-MB-468 tumor, 50 mg/kg; for target occupancy, accounting for background signal: background radioactivity of normal tissues (heart) subtracted
Procedure: MDA-MB-468 (RRID:CVCL_0419) tumor xenografts were established on the forelimbs of female athymic nude mice (Hsd:Athymic Nude-Foxn1^nu; Envigo; 5 weeks old; RRID:MGI:5652489) by subcutaneous (s.c.) injection of 7 × 10^6 cells in a 300 µL cell suspension of a 1:1 v/v mixture of PBS with reconstituted basement membrane (BD Matrigel^TM, Collaborative Biomedical Products Inc., Bedford, MA, USA). Tumor progression was monitored using vernier calipers. For biodistribution studies, female athymic nude mice with MDA-MB-468 tumor xenografts (~200–300 mm^3) on the forelimbs were injected intravenously in the tail vein with zelavespib (50 mg/kg (PU-H71.HCl formulated in 10 mM Phosphate Buffer, pH = ~6.4)) at different time points (0 (co-injection), 6, 24, and 48 h) prior to tracer administration. At designated time points post-drug administration, mice were injected intravenously in the tail vein with 0.93–1.1 MBq (25–50 µCi) of [^131I]-PU-AD in 200 µL of 5% ethanol in saline. The activity in the syringe before and after administration was assayed in a dose calibrator (CRC-15R; Capintec, Florham Park, NJ, USA) to determine by difference the actual activity administered to each animal. Animals were euthanized by CO2 asphyxiation at 24 h post-administration of the radiolabeled [^131I]-PU-AD tracer, and organs, including tumor(s), were harvested and weighed. ^131I was measured in a 2480 WIZARD automatic gamma counter (PerkinElmer, Waltham, MA, USA) using a 260–430 keV energy window. Count data were background- and decay-corrected to the time of injection, and the percent injected dose per gram (%ID/g) for each tissue sample was calculated using a measured ^131I calibration factor to convert count rate to activity and the activity was normalized to the activity injected and the weighed mass of the sample to yield the activity concentration in %ID/g.
The drug could be trapped in non-tumor areas (i.e., stroma or necrotic tissue) or be intracellular but not target-bound. To test this notion and determine the percentile target occupied by each of these intratumoral concentrations of zelavespib, we performed studies in which tracer amounts (that is, non-pharmacologically perturbing amounts) of the radiolabeled epichaperome ligand [^131I]-PU-AD (~6 ng/g which is ~1/10,000 of the therapeutic zelavespib amount) were administered to mice intravenously 24 h prior to tumor zelavespib measurements (Figure 2a). The ^131I isotope has a half-life of 8 days, making it suitable for measurements of drugs with an extended tumor retention profile, such as that observed for zelavespib. It emits γ radiation and β particles; thus, γ-counting can be applied to detect and quantify the radioactive signal in tumors and tissues upon mouse sacrifice. Because both zelavespib and [^131I]-PU-AD bind to the same target, the epichaperome, the more zelavespib that is present in the tumor and is target-bound, the lower the radioactivity signal is in the tumor.
Figure 3 Relationship between molar concentration and target engagement in MDA-MB-468 tumor-bearing mice. (a) Tumor molar concentrations of zelavespib experimentally determined by LC–MS/MS upon administration of single-dose 50 mg/kg zelavespib and sacrificing the mice at 30 h, 48 h, and 72 h post-zelavespib administration (n = 5 mice per time-point). Data are presented as means ± s.e.m., n = 5, one-way ANOVA with Dunnett’s post hoc. Controls: PU-24h, mice were injected 50 mg/kg zelavespib, and tumor concentrations of the drug were determined at 24 h post-injection using LC–MS/MS. Vehicle, mice were injected vehicle only. (b) Target engagement by zelavespib was determined by co-injection of zelavespib with a trace amount of [^131I]-PU-AD. Zelavespib was administered 6, 24, and 48 h prior to [^131I]-PU-AD. […]

CC(C)NCCCn1c(Sc2cc3c(cc2I)OCO3)nc2c(N)ncnc21 [zelavespib]
T1/2 in MDA-MB-468 tumors [1]: approximately 60 h | target occupancy ([2]; 30 h post single 50 mg/kg i.v.): 38.8% | target occupancy, accounting for background signal ([2]; 30 h post single 50 mg/kg i.v.): 41.5% | target occupancy ([2]; 48 h post single 50 mg/kg i.v.): 24.9% | target occupancy, accounting for background signal ([2]; 48 h post single 50 mg/kg i.v.): 22.4% | target occupancy, accounting for background signal ([2]; 72 h post single 50 mg/kg i.v.): 3.5% | remaining intratumoral zelavespib that is target-bound ([2]; 72 h post-injection): about 50%
